Test results from article PMC11711195, “The non-nutritive sweetener rebaudioside a enhances phage infectivity” (Scientific Reports, 2025).

Biological target: T1, gp31 (Klebsiella phage KP32, UniProt D1L2W4)
T1 construct: gene 31; recombinant from bacterial expression, His-tag (and MBP) removed by TEV protease
T1 sequence (D1L2W4 1-192): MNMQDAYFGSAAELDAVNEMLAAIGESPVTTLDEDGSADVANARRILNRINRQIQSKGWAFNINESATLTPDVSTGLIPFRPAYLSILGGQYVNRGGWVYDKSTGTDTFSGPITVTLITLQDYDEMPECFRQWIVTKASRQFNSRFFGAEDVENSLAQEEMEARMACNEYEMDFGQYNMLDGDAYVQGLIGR
Assay: RedStarch hydrolysis, absorbance […] nm
Assay type: biochemical
Details: activator; RedStarch 2% w/v stock; 50 µL gp31 4.673 µM plus 50 µL rebA 14.019 µM; 20 °C, 72 h

C=C1C[C@@]23CC[C@H]4[C@@](C)(CCC[C@@]4(C)C(=O)O[C@@H]4O[C@H](CO)[C@@H](O)[C@H](O)[C@H]4O)[C@@H]2CC[C@]1(O[C@@H]1O[C@H](CO)[C@@H](O)[C@H](O[C@@H]2O[C@H](CO)[C@@H](O)[C@H](O)[C@H]2O)[C@H]1O[C@@H]1O[C@H](CO)[C@@H](O)[C@H](O)[C@H]1O)C3 [rebA]
increment of activity: 51.14%
